In paper PMC11859031, “Assessment of the In Vitro Biological Activities of Schiff Base-Synthesized Copper Oxide Nanoparticles as an Anti-Diabetic, Anti-Alzheimer, and Anti-Cancer Agent” (Pharmaceutics, 2025):
In brackets after ≈: the same amount, converted by molar mass.

How the values were obtained:
[1] = Total antioxidant capacity (TAC), phosphomolybdenum method; conditions: samples at 100 µg/mL; mean ± SE, n = 3
Description: 1. Preparation of SB-CuO-NPs
The copper oxide nanoparticles (CuO-NPs) were biosynthesized using a concentrated anhydrous copper sulfate solution (1 mM) as a metal precursor based […]
dissolved in 100 ml of deionized water to form a 0.1 M concentration. The Schiff base (SB) was mixed with the metal solution in a ratio of 4:1. The SB-CuO-NPs was monitored by a color change. They were dried at 80 °C after centrifuging the colloidal solution at 4000 rpm for 15 min.
2. Characterization of the SB-CuO-NPs
The spectra of the SB-CuO-NPs were characterized using a Shimadzu UV-VIS recording spectrophotometer UV-240 after diluting the samples (10-fold) with deionized water at λ 200 - 800 nm. Their surface zeta potentials were measured using the laser zeta meter (Malvern Zetasizer 2000, Malvern, Worcestershire, UK) following […]
Moreover, their average hydrodynamic sizes were determined using the laser diffraction method with multiple scattering techniques employing dynamic light scattering (DLS) (Malvern Zetasizer Nano ZS, Malvern Instruments Ltd., Malvern, United Kingdom) (Murdock et al., 2008). […]
All biological activities were assessed in the prepared samples at equal concentrations (100 µg/mL). […]
After cooling to room temperature, the absorbance was measured at 695 nm against the blank. […] The antioxidant capacity was expressed as mg gallic acid equivalent per gram weight. […]

[2] = Iron reducing power (IRP); conditions: samples at 100 µg/mL; mean ± SE, n = 3
Description: ammonium molybdate. Methanol (80%) was used in place of the sample for the blank. The tubes were sealed and incubated in a boiling water bath for 90 minutes.
After cooling to room temperature, the absorbance was measured at 695 nm against the blank. […] was used at the same concentrations as a standard. The antioxidant capacity was expressed as mg gallic acid equivalent per gram weight.
The iron reducing power was determined as µg/mL using the method proposed by Oyaizu (1986). In brief, 1ml of the tested sample (at each concentration) was combined with 1mL of 200mM sodium phosphate buffer (pH 6.6) and 1mL of 1% potassium ferricyanide. […] The absorbance was measured at 700nm against a blank prepared without the sample. […] A high absorbance at 700nm indicates a higher reducing power in the reaction mixture.
(§1) The 1,1-Diphenyl-2-picryl-hydrazyl (DPPH) radical scavenging activities were evaluated using the method described by Rahman et al. An antioxidant substance capable of donating a hydrogen atom to a solution containing DPPH- can reduce the stable free radical, causing the solution to change color from violet to pale yellow.
The remaining DPPH- radical was quantified by measuring the intensity of a light-purple colored DPPH methanol solution in the visible range at 518 nm using a spectroscopic method. […]

DPPH radical scavenging = conditions: mean ± SE, n = 3
Description: as §1
The remaining DPPH- radical was quantified by measuring the intensity of a light-purple colored DPPH methanol solution in the visible range at 518 nm using a spectroscopic method. Two mill iliters of a DPPH solution (100 µ M) in ethanol were mixed with 2 mL of the sample (at each concentration). The reaction mixture for each concentration was thoroughly vortexed and then incubated in the dark at room temperature for 30 minutes. The absorbance was then measured spectrophotometrically at 518 nm against a blank (ethanol). For the control, 2 mL of ethanol was added instead of the sample and run simultaneously with the test.
Ascorbic acid was used at the same concentrations as a positive control. P ercent […]
inhibition of the DPPH free radical was calculated. […]

ABTS radical scavenging = conditions: mean ± SE, n = 3
Description: The procedure for the 2,2'-azinobis-(3-ethylbenzothiazoline-6-sulfonic acid) (ABTS) […]
solution (7 mM) and potassium persulfate solution (2.4 mM). The working solution was prepared by mixing the two stock solutions in equal quantities and allowing them to react at room temperature in a dark place for 14 hours. The solution was then diluted by mixing 1 mL of ABTS solution with 60 mL of methanol to obtain an absorbance of 0.706 ± 0.01 units at 734 nm using a spectrophotometer. Fresh ABTS solution was prepared for each assay. The tested samples (at each concentration) were allowed to react with 1 mL of the ABTS solution, and the absorbance was taken at 734 nm after 7 minutes using a spectrophotometer. […]

NO radical scavenging = conditions: mean ± SE, n = 3
Description: The in vitro biological applications of the SB and SB-CuO-NPs, including antioxidant, scavenging, anti-diabetic, anti-Alzheimer, anti-arthritic, anti-inflammatory, cytotoxic effects, and enzyme inhibition, were assessed using methods described in the literature (See Supplementary Materials).
During the current study, the free radical scavenging capacity of SB-CuO-NPs, SB, and ascorbic acid (positive control) was evaluated using the DPPH, ABTS, and NO radical methods. The scavenging activity is used to predict antioxidant efficacy, a mechanism in which antioxidants inhibit lipid oxidation. The lower IC50 value indicates a stronger ability of the SB-CuO-NPs to act as radical scavengers, whereas the higher IC50 value indicates a lower scavenging activity. […] The lower the IC50 value, the greater the antioxidant activity.

[3] = system: caspase-3 in HepG-2 cells; test: Caspase-3 ELISA in treated HepG-2 cells; format: cell-based, human; conditions: HepG-2 cells treated at the IC50 value, mean ± SE, n = 3
Description: (§2) Following the treatment of HepG-2, Caco-2, A549, and BJ-1 cells with the SB-CuO-NPs at their respective IC50 values, as illustrated in Figure 9 and detailed in Table 5, an assessment of the activities of the caspase-3 and Bcl-2 enzymes was conducted in the treated cells. […] This mechanism ultimately triggers apoptosis. Additionally, the increased activity of caspase-3 results in a decrease in the expression of cyclin D1 and CDK-2 mRNA, thereby promoting the arrest of the G1 phase of the cell cycle. Othman et al. further noted that the biosynthesized M-NPs facilitate apoptosis by inhibiting the expression of the PI3K/AKT and Ras/Raf/ERK protein signaling pathways.
(§3) Invitrogen Corporation, following the manufacturer's instructions.

Bcl-2 in HepG-2 cells = test: Bcl-2 ELISA in treated HepG-2 cells; format: cell-based, human; conditions: HepG-2 cells treated at the IC50 value, mean ± SE, n = 3
Description: as §2, §3

[4] = system: caspase-3 in Caco-2 cells; test: Caspase-3 ELISA in treated Caco-2 cells; format: cell-based, human; conditions: Caco-2 cells treated at the IC50 value, mean ± SE, n = 3
Description: as §2, §3

Bcl-2 in Caco-2 cells = test: Bcl-2 ELISA in treated Caco-2 cells; format: cell-based, human; conditions: Caco-2 cells treated at the IC50 value, mean ± SE, n = 3
Description: as §2, §3

caspase-3 in A549 cells = test: Caspase-3 ELISA in treated A549 cells; format: cell-based, human; conditions: A549 cells treated at the IC50 value, mean ± SE, n = 3
Description: as §2, §3

Bcl-2 in A549 cells = test: Bcl-2 ELISA in treated A549 cells; format: cell-based, human; conditions: A549 cells treated at the IC50 value, mean ± SE, n = 3
Description: as §2, §3

caspase-3 in BJ-1 cells = test: Caspase-3 ELISA in treated BJ-1 cells; format: cell-based, human; conditions: BJ-1 cells treated at the IC50 value, mean ± SE, n = 3
Description: as §2, §3

Bcl-2 in BJ-1 cells = test: Bcl-2 ELISA in treated BJ-1 cells; format: cell-based, human; conditions: BJ-1 cells treated at the IC50 value, mean ± SE, n = 3
Description: as §2, §3

[5] = system: human lung cancer (A549) cell line; test: MTT cytotoxicity, A549
MTT cytotoxicity, BJ-1 = conditions: human, BJ-1 normal fibroblast cells
[6] = system: normal human fibroblast (BJ-1) cell line; test: MTT cytotoxicity, BJ-1; conditions: Homo sapiens, Fibroblast, 48 h, read-out: Median Inhibitory Concentration (IC50) BJ-1
[7] = system: human hepatocellular carcinoma (HepG-2) cell line; test: MTT cytotoxicity, HepG-2
[8] = system: human colon cancer (Caco-2) cell line; test: MTT cytotoxicity, Caco-2
[9] = biological target: T1, 5-LOX enzyme (human recombinant) (Homo sapiens, UniProt P09917); test: 5-Lipoxygenase inhibition assay; format: biochemical; conditions: at 100 µg/mL; mean ± SE, n = 3; read-out: 5-LOX Inhib. (%)
T1 construct: purchased Sigma-Aldrich 437996
T1 sequence (P09917 1-674): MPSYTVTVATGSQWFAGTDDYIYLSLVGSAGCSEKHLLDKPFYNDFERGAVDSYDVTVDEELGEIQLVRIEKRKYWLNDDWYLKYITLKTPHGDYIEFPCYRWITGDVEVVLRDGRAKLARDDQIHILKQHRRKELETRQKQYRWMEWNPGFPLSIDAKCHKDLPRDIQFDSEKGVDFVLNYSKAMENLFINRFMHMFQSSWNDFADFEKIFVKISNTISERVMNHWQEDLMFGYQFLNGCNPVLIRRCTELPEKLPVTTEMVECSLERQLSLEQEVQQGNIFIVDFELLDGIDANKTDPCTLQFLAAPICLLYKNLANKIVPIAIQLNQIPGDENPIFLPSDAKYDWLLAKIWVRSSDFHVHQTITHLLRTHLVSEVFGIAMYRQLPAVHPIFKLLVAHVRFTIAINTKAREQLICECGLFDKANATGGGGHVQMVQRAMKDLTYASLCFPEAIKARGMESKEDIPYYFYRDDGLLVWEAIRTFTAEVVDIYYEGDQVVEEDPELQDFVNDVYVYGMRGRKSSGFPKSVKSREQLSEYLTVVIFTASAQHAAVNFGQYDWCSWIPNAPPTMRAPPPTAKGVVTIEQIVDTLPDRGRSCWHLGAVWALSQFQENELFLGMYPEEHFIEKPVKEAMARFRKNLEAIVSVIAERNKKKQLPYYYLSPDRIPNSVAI

SMILES: O=C1O[C@H]([C@@H](O)CO)C(O)=C1O [Ascorbic Acid, reference compound]
- Antioxidant activity TAC [1]: 83.75 ± 0.13 mg gallic acid/g
- Antioxidant activity IRP [2]: 66.00 ± 0.13 µg/mL
- Scavenging activity DPPH Inhib. (%) (DPPH radical scavenging; at 100 µg/mL): 61.68 ± 0.12%
- Scavenging activity DPPH IC50 (DPPH radical scavenging): 4.50 ± 0.03 µg/mL
- Scavenging activity ABTS Inhib. (%) (ABTS radical scavenging; at 100 µg/mL): 65.43 ± 0.12%
- Scavenging activity ABTS IC50 (ABTS radical scavenging): 3.99 ± 0.04 µg/mL
- Scavenging activity NO Inhib. (%) (NO radical scavenging; at 100 µg/mL): 53.93 ± 0.12%
- Scavenging activity NO IC50 (NO radical scavenging): 5.24 ± 0.02 µg/mL

SMILES: COc1cccc2c1C(=O)c1c(O)c3c(c(O)c1C2=O)C[C@@](O)(C(=O)CO)C[C@@H]3O[C@H]1C[C@H](N)[C@H](O)[C@H](C)O1 [Doxorubicin, reference compound]
- Caspase-3 [3]: 306.04 ± 1.23 pg/mL
- Bcl-2 (Bcl-2 in HepG-2 cells): 4.00 ± 0.02 ng/mL
- Caspase-3 [4]: 265.13 ± 0.12 pg/mL
- Bcl-2 (Bcl-2 in Caco-2 cells): 2.04 ± 0.01 ng/mL
- Caspase-3 (caspase-3 in A549 cells): 247.96 ± 0.08 pg/mL
- Bcl-2 (Bcl-2 in A549 cells): 4.51 ± 0.01 ng/mL
- Caspase-3 (caspase-3 in BJ-1 cells): 200.43 ± 0.08 pg/mL
- Bcl-2 (Bcl-2 in BJ-1 cells): 2.72 ± 0.01 ng/mL
- viability at 6.25 µg/mL ([5]; A549): 77.4%
- viability at 12.5 µg/mL ([5]; A549): 51%
- viability at 25 µg/mL ([5]; A549): 24.3%
- viability at 50 µg/mL ([5]; A549): 12.1%
- viability at 100 µg/mL ([5]; A549): 5.17%
- IC50 ([5]; A549, 48 h, read-out: Median Inhibitory Concentration (IC50) A549): 14.4 ± 1.12 µg/mL (≈ 26.4 µM)
- viability at 48 h, 6.25 μg/mL (MTT cytotoxicity, BJ-1): 87.4%
- viability at 48 h, 12.5 μg/mL (MTT cytotoxicity, BJ-1): 68%
- viability at 48 h, 25 μg/mL (MTT cytotoxicity, BJ-1): 42.3%
- viability at 48 h, 50 μg/mL (MTT cytotoxicity, BJ-1): 20.1%
- viability at 48 h, 100 μg/mL (MTT cytotoxicity, BJ-1): 13.2%
- IC50 [6]: 22 ± 1.51 µg/mL (≈ 40.5 µM)
- viability at 6.25 µg/mL ([7]; HepG2): 74.4%
- viability at 12.5 µg/mL ([7]; HepG2): 59%
- viability at 25 µg/mL ([7]; HepG2): 34.3%
- viability at 50 µg/mL ([7]; HepG2): 18.1%
- viability at 100 µg/mL ([7]; HepG2): 9.17%
- IC50 ([7]; HepG2, 48 h, read-out: Median Inhibitory Concentration (IC50) HepG-2): 15.5 ± 1.98 µg/mL (≈ 28.5 µM)
- viability at 6.25 µg/mL ([8]; Caco-2): 70.2%
- viability at 12.5 µg/mL ([8]; Caco-2): 35.2%
- viability at 25 µg/mL ([8]; Caco-2): 5.64%
- viability at 50 µg/mL ([8]; Caco-2): 4.48%
- viability at 100 µg/mL ([8]; Caco-2): 1.3%
- IC50 ([8]; Caco-2, 48 h, read-out: Median Inhibitory Concentration (IC50) Caco-2): 11.1 ± 1.09 µg/mL (≈ 20.5 µM)

SMILES: CC(c1cc2ccccc2s1)N(O)C(N)=O (centres unmarked) [Zileuton, reference compound]
- inhibition at 100 µg/mL [9]: 46.99 ± 0.13%
